Results reported in PubChem BioAssay (NCI).
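Where inhibition never reached the appropriate level, the endpoint shown equals the highest concentration tested. Otherwise, values were interpolated linearly from a five-concentration, 48-hour dose response in 96-well plates. At the TGI there is no net growth.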

Tests used:
Assay in all cases: DTP human tumour cell line panel, 48 h
786-0 renal = tested on: 786-0 renal
A498 renal = tested on: A498 renal
A549 NSCLC = tested on: A549 NSCLC
ACHN renal = tested on: ACHN renal
BT-549 breast = tested on: BT-549 breast
CAKI-1 renal = tested on: CAKI-1 renal
CCRF-CEM leukemia = tested on: CCRF-CEM leukemia
COLO 205 colon = tested on: COLO 205 colon
DU-145 prostate = tested on: DU-145 prostate
EKVX NSCLC = tested on: EKVX NSCLC
HCC-2998 colon = tested on: HCC-2998 colon
HCT-116 colon = tested on: HCT-116 colon
HCT-15 colon = tested on: HCT-15 colon
HL-60(TB) leukemia = tested on: HL-60(TB) leukemia
HOP-92 NSCLC = tested on: HOP-92 NSCLC
HS 578T breast = tested on: HS 578T breast
HT29 colon = tested on: HT29 colon
IGROV1 ovarian = tested on: IGROV1 ovarian
K-562 leukemia = tested on: K-562 leukemia
KM12 colon = tested on: KM12 colon
LOX IMVI melanoma = tested on: LOX IMVI melanoma
M14 melanoma = tested on: M14 melanoma
MALME-3M melanoma = tested on: MALME-3M melanoma
MCF7 breast = tested on: MCF7 breast
MDA-MB-231 breast = tested on: MDA-MB-231 breast
MDA-MB-435 = tested on: MDA-MB-435
MOLT-4 leukemia = tested on: MOLT-4 leukemia
NCI-H226 lung = tested on: NCI-H226 lung
NCI-H23 lung = tested on: NCI-H23 lung
NCI-H460 lung = tested on: NCI-H460 lung
NCI-H522 lung = tested on: NCI-H522 lung
NCI/ADR-RES ovarian = tested on: NCI/ADR-RES ovarian
OVCAR-3 ovarian = tested on: OVCAR-3 ovarian
OVCAR-4 ovarian = tested on: OVCAR-4 ovarian
OVCAR-5 ovarian = tested on: OVCAR-5 ovarian
OVCAR-8 ovarian = tested on: OVCAR-8 ovarian
PC-3 prostate = tested on: PC-3 prostate
SF-268 CNS = tested on: SF-268 CNS
SF-295 CNS = tested on: SF-295 CNS
SF-539 CNS = tested on: SF-539 CNS
SK-MEL-2 melanoma = tested on: SK-MEL-2 melanoma
SK-MEL-28 melanoma = tested on: SK-MEL-28 melanoma
SK-MEL-5 melanoma = tested on: SK-MEL-5 melanoma
SK-OV-3 ovarian = tested on: SK-OV-3 ovarian
SN12C renal = tested on: SN12C renal
SNB-19 CNS = tested on: SNB-19 CNS
SNB-75 CNS = tested on: SNB-75 CNS
SW-620 colon = tested on: SW-620 colon
T-47D breast = tested on: T-47D breast
TK-10 renal = tested on: TK-10 renal
U251 CNS = tested on: U251 CNS
UACC-257 melanoma = tested on: UACC-257 melanoma
UACC-62 melanoma = tested on: UACC-62 melanoma
UO-31 renal = tested on: UO-31 renal

In the case of `C[C@H]1CN[C@@H]2[C@@H](C)[C@H]3[C@@H](C[C@H]4[C@@H]5CC[C@H]6C[C@@H](N)CC[C@]6(C)[C@H]5CC[C@]34C)O[C@@]2(O)C1`, the TGI (786-0 renal) is reported as 3.66 µM, the TGI (A498 renal) is reported as 1.44 µM and the TGI (A549 NSCLC) is reported as 17.3 µM. It also gave a TGI (ACHN renal) of 9.3 µM, a TGI (BT-549 breast) of 7.24 µM and a TGI (CAKI-1 renal) of 6.43 µM. It also gave a TGI (CCRF-CEM leukemia) of 4.27 µM, a TGI (COLO 205 colon) of 7.69 µM and a TGI (DU-145 prostate) of 16.9 µM. It also gave a TGI (EKVX NSCLC) of 14.9 µM, a TGI (HCC-2998 colon) of 6.23 µM and a TGI (HCT-116 colon) of 3.14 µM. It also gave a TGI (HCT-15 colon) of 4.5 µM, a TGI (HL-60(TB) leukemia) of 4.08 µM and a TGI (HOP-92 NSCLC) of 11.4 µM. It also gave a TGI (HS 578T breast) of 6.55 µM, a TGI (HT29 colon) of 3.9 µM and a TGI (IGROV1 ovarian) of 9.66 µM. For the same molecule, the TGI (K-562 leukemia) was 41.9 µM, the TGI (KM12 colon) was 11.1 µM and the TGI (LOX IMVI melanoma) was 4.08 µM. It also gave a TGI (M14 melanoma) of 4.73 µM, a TGI (MALME-3M melanoma) of 3.23 µM and a TGI (MCF7 breast) of 26.3 µM. It also gave a TGI (MDA-MB-231 breast) of 4.3 µM, a TGI (MDA-MB-435) of 3.71 µM and a TGI (MOLT-4 leukemia) of 7.77 µM. For the same molecule, the TGI (NCI-H226 lung) was 5.77 µM, the TGI (NCI-H23 lung) was 26.9 µM and the TGI (NCI-H460 lung) was 7.78 µM. The TGI (NCI-H522 lung) was 5.91 µM, the TGI (NCI/ADR-RES ovarian) was 5.66 µM and the TGI (OVCAR-3 ovarian) was 5.96 µM. The TGI (OVCAR-4 ovarian) was 17.5 µM, the TGI (OVCAR-5 ovarian) was 19.6 µM and the TGI (OVCAR-8 ovarian) was 4.78 µM. It also gave a TGI (PC-3 prostate) of 13.9 µM, a TGI (SF-268 CNS) of 7.15 µM and a TGI (SF-295 CNS) of 10.3 µM. For the same molecule, the TGI (SF-539 CNS) was 3.27 µM, the TGI (SK-MEL-2 melanoma) was 12.2 µM and the TGI (SK-MEL-28 melanoma) was 4.23 µM. It also gave a TGI (SK-MEL-5 melanoma) of 10.4 µM, a TGI (SK-OV-3 ovarian) of 19.7 µM and a TGI (SN12C renal) of 4.25 µM. The TGI (SNB-19 CNS) was 6.96 µM, the TGI (SNB-75 CNS) was 9.52 µM and the TGI (SW-620 colon) was 6.23 µM. The TGI (T-47D breast) was 4.51 µM, the TGI (TK-10 renal) was 11.7 µM and the TGI (U251 CNS) was 4.9 µM. It also gave a TGI (UACC-257 melanoma) of 3.74 µM, a TGI (UACC-62 melanoma) of 4.6 µM and a TGI (UO-31 renal) of 5.79 µM.
